Measurements from US20260355171A1, “INHIBITORS AND USES THEREFOR” (priority 2022, published 2026).

Key:
[1] = system: Omicron variant of SARS-CoV-2
[2] = system: Delta variant of SARS-CoV-2

Structure (SMILES): NC(=O)C1CCN(c2ncccc2CNCc2cccc3[nH]ccc23)CC1 [Compound 22]
- Titre of Omicron variant [1]: Significant reduction of titres
- Titre of Delta variant [2]: Significant reduction of titres
